Several values for one entry are separate records, joined by “and”; a condition that tells them apart may be missing. Identical values can stand only once.
Tests used:
[1] = system: human-derived breast cancer cultured cells (cell E); experiment: Effect of anticancer agent therapy for cancerous mice (change in tumor size), cell E heterograft; type: in vivo; details: cell E implanted subcutaneously in mice; 20 mg/kg once a day for 5 days; tumor size to the 11th day
Method: (§1) 5 kinds of human-derived breast cancer cultured cells (cells A to E) were subcutaneously implanted on the backs of forty-six mice (No. 1 to 46). The mice were raised for 21 to 28 days to engraft the breast cancer cells. […] Upon lapse of 24 hours after the administration, tissues (about 50 mg) in the size of 2.5 mm×2.5 mm was cut from the back of each mouse. Each of the tissues were homogenized using an electric homogenizer to dissolve dissolvable components in a buffer solution containing 0.1 w/v % nonidet P-40 (NP-40) (Calbiochem), 50 mM tris-HCl (pH: 7.4), 5 mM EDTA, 50 mM sodium fluoride, 1 mM sodium orothovanadate, and 100 μl/ml of protease inhibitor cocktail (Sigma, St. Louis, Mo.).
(§2) The tumor size was measured from the start of the administration to the 11th day after the start of the administration. The chemotherapeutic effectiveness was classified, according to the change in tumor size, into Type I (high chemosensitivity), Type II (medium chemosensitivity), Type III (slightly low chemosensitivity), and Type IV (low chemosensitivity). […] The classification results are shown in the column of “Effect of therapy” in Table 1.

[2] = system: CDK2; experiment: CDK2 specific activity in tumor tissue lysate of mouse heterograft after paclitaxel administration; type: in vivo, human; details: 24 hours after 20 mg/kg single administration, one value per mouse
Method: A tissue specimen containing target tumor cells was prepared in a 1.5 ml-Eppendorf tube so that 100 μg lysate in terms of total protein mass was dissolved in a buffer solution of 500 μl. […] After the addition, the solution was reacted at 4° C. for 1 hour. Thereafter, the beads were washed with a buffer solution (0.1% NP-40 and 50 mM tris-HCl adjusted pH 7.0) three times, followed by re-suspension in a kinase buffer of 15 μl. Thus, a sample containing the beads to which the target CDK binds was yielded.
(§3) In the sample, all the CDK (hereinafter, if distinction is not necessary, simply called as “CDKs”) including CDK itself, activated CDK to which cycline binds, complexes of activated CDK and CDK inhibitor, and complexes of CDK and CDK inhibitor were bound to the antibodies, thereby fixing the CDKs to the beads. The activity of the CDKs in the sample was measured by the following measurement method.
(§4) Prepared was a substrate solution containing 5 mM adenosine 5′-O-([…]) (ATP-γS (Sigma)), a buffer solution (20 mM tris-HCl (pH: 7.4), 0.1% Triton-X-100), and 10 μg histon H1 (Upstate Biotechnology, Lake Placid, N.Y.) as a substrate for CDK1 and CDK2. The substrate solution was added to the aforementioned sample solution containing the CDKs up to the total volume of 50 μl. The resulting sample solution was shaken for 10 minutes at 37° C. for incubation. As shown by the following formula, serine or threonine residue in the substrate was phosphorylated by the activated CDK, and monothiophosphorylated substrate was yielded.
(§5) After the reaction, the sample solution was centrifuged at 20,000 rpm for 20 seconds to precipitate the beads, and 18 μl of a supernatant in which monothiophosphates were dissolved was obtained. To 18 μl of the supernatant, added was 15 μl of a buffer solution (150 mM tris-HCl (pH: 9.2) and 5 mM EDTA). Further, the resultant solution was incubated in 10 mM iodoacetyl biotin solution (100 mM tris-HCl (pH: 7.5) and 1 mM EDTA) in a dark place for 90 minutes at room temperature. Thereby, sulfur ions in the thiophosphates in the monothiophosphorylated substrate were labeled by biotinylation. The reaction of the iodoacetyl biotin with the thiophosphates was stopped by adding […].
(§6) 0.4 μg of the biotinylated thiophosphorylated substrate was blotted on a PVDF membrane by using a slot blotter for adsorption. The blotted membrane was blocked with 1% of bovine serum albumin (BSA) for 30 minutes, followed by reaction with avidin-FITC (Vector, Burlingame, Calif.) at 37° C. for 1 hour. Thereafter, the membrane was washed with 50 mM TBS (25 mM tris-HCl (pH: 7.4) and 150 mM NaCl) for 10 minutes three times. After the washing, the image on the membrane was analyzed by a fluorescent image analyzer (Bio-Rad, Calif. U.S.A.). The activity of the CDKs was calculated based on a standard curve.
(§7) The standard curve was created by adsorbing a protein (biotinylated immunoglobulin) of a known amount to a PVDF membrane, labeling the protein with FITC in the same manner as mentioned above, and measuring the fluorescent intensity of the protein by the fluorescent image analyzer (Bio-Rad). 1 U of the CDK activity to be measured is a value representing the fluorescent intensity substantially equivalent to the fluorescent amount of the target protein of 1 ng.
An initialized PVDF membrane (Millipore, Billerica, Mass.) obtained by immersing the membrane in TBS (25 mM tris-HCl (pH: 7.4) and 150 mM NaCl) was set to a well plate for slot blotter. […]

[3] = system: CDK1; experiment: CDK1 specific activity in tumor tissue lysate of mouse heterograft after paclitaxel administration; type: in vivo, human; details: 24 hours after 20 mg/kg single administration, one value per mouse
Method: A tissue specimen containing target tumor cells was prepared in a 1.5 ml-Eppendorf tube so that 100 μg lysate in terms of total protein mass was dissolved in a buffer solution of 500 μl. To the buffer solution, added were sepharose beads (Bio-Rad, Calif., U.S.A.) coated with 20 μl of a protein A and 2 μg of antibodies specific to the CDK whose activity was to be measured, i.e. polyclonal anti-CDK1-antibodies or polyclonal anti-CDK2-antibodies (Santa Cruz Biotechnology, Santa Cruz, Calif.). After the addition, the solution was reacted at 4° C. for 1 hour. Thereafter, the beads were washed with a buffer solution (0.1% NP-40 and 50 mM tris-HCl adjusted pH 7.0) three times, followed by re-suspension in a kinase buffer of 15 μl. Thus, a sample containing the beads to which the target CDK binds was yielded.
as §3, §4, §5
as §6, with “Thereafter, the membrane was washed with 50 mM TBS (25 mM tris-HCl (pH: 7.4) and 150 mM NaCl) for 10 minutes three times.” left out
as §7, with “ng. […]” for “ng.”

[4] = system: p21; experiment: Expression level of p21 (WAF1 ELISA) in tumor tissue lysate of mouse heterograft after paclitaxel administration; type: in vivo, human; parameters: unit not given here; details: 24 hours after 20 mg/kg single administration, one value per mouse
Method: Expression level of p21 is measured using CALIBIOCHEM p21 WAF 1 ELISA kit (EMD Bioscience Inc.).
WAF1 sample solutions (mixture solutions of specimen and WAF1 standard solution containing lyophilized WAF1) were prepared by diluting the WAF1 standard solution (20 unit/ml lyophilized WAF1) stepwise with the cell lysate as the specimen. In each of the sample solutions, the cell lysate was diluted 4-times or more.
Into 96-well plastic plate in which rabbit polyclonal antibodies (primary antibody) specific to WAF1 was coated, 100 μl each of the WAF1 sample solution and the WAF1 standard solution were individually seeded into the wells. The well plate was sealed and incubated at room temperature for 2 hours for reaction with the primary antibody.
After the well plate was washed with a cleaning buffer, which was prepared by adding 25 ml of a 20-times concentrated solution to 475 ml de-ionized water, three times, 100 μl of antibodies (biotinylated anti-WAF1 monoclonal antibodies) for detection of […] were added to each well. Thereafter, the well plate was sealed and allowed to react at room temperature for 1 hour.
After the reaction, the well plate was washed with the cleaning buffer three times, and then, 100 μl of a peroxidase-conjugated streptavidine diluent was added into each well, and the mixture was stirred moderately. Thereafter, the well plate was sealed and allowed to react at room temperature for 30 minutes. After reaction, unbound peroxidase-conjugated streptavidine was removed by washing with the cleaning buffer three times. And then, 100 μl of a substrate solution (pigment source substrate) was added into each well, and the mixture was reacted at room temperature for 30 minutes. Upon lapse of 30 minutes after the addition, 100 μl of a stop solution (2.5 N sulfuric acid) was poured into each well to stop the reaction. Then, absorbance of each well's contents was measured using a plate reader at dual wavelength of 450/540 nm.
The concentration of p21WAF1 in the WAF1 sample solutions was calculated based on a standard curve of the WAF1 standard solution.
as §1
After removing insoluble components by centrifuging at 15,000 rpm for 5 minutes at 4 ° C., the obtained supernatants (cell lysates) were used as specimens.
Activity and expression level of CDK1 and CDK2 respectively were measured with respect to the specimens obtained in the experiment (1) in accordance with the aforementioned measurement method, and the specific activity of CDK1 and the specific activity of CDK2 in the specimens were calcurated. Also, the expression level of p21 in the specimens was measured in accordance with the aforementioned measurement method.

[5] = system: human-derived breast cancer cultured cells (cell C); experiment: Effect of anticancer agent therapy for cancerous mice (change in tumor size), cell C heterograft; type: in vivo; details: cell C implanted subcutaneously in mice; 20 mg/kg once a day for 5 days; tumor size to the 11th day
Method: as §1, §2

[6] = system: human-derived breast cancer cultured cells (cell A); experiment: Effect of anticancer agent therapy for cancerous mice (change in tumor size), cell A heterograft; type: in vivo; details: cell A implanted subcutaneously in mice; 20 mg/kg once a day for 5 days; tumor size to the 11th day
Method: as §1, §2

[7] = system: human-derived breast cancer cultured cells (cell D); experiment: Effect of anticancer agent therapy for cancerous mice (change in tumor size), cell D heterograft; type: in vivo; details: cell D implanted subcutaneously in mice; 20 mg/kg once a day for 5 days; tumor size to the 11th day
Method: as §1, §2

[8] = system: human-derived breast cancer cultured cells (cell B); experiment: Effect of anticancer agent therapy for cancerous mice (change in tumor size), cell B heterograft; type: in vivo; details: cell B implanted subcutaneously in mice; 20 mg/kg once a day for 5 days; tumor size to the 11th day
Method: as §1, §2

With `CC(=O)O[C@H]1C(=O)[C@@]2(C)[C@H]([C@H](OC(=O)c3ccccc3)[C@]3(O)C[C@H](OC(=O)[C@H](O)[C@@H](NC(=O)c4ccccc4)c4ccccc4)C(C)=C1C3(C)C)[C@]1(OC(C)=O)CO[C@@H]1C[C@@H]2O` [paclitaxel] as the compound, how does the “Therapy using anticancer agent: Effect of therapy” value (“Therapy using anticancer agent” below) [1] read?
The value was “Type IV”.

What about the “Specific activity of CDK2” value ([2]; cell A tumor tissue) of the same compound?
The value was 734.6 mU/ng and 634.1 mU/ng and 1083.2 mU/ng and 766.4 mU/ng and 407.1 mU/ng and 574.5 mU/ng and 545.0 mU/ng.

What about the “Specific activity of CDK2” value ([2]; cell B tumor tissue) of the same compound?
Its value is 156.2 mU/ng and 192.8 mU/ng and 109.1 mU/ng and 328.6 mU/ng and 64.8 mU/ng and 130.5 mU/ng and 171.6 mU/ng and 140.3 mU/ng and 157.9 mU/ng and 92.1 mU/ng and 41.9 mU/ng.

And the “Specific activity of CDK2” value ([2]; cell C tumor tissue)?
The value was 163.6 mU/ng and 213.3 mU/ng and 209.9 mU/ng and 341.2 mU/ng and 106.9 mU/ng and 206.6 mU/ng and 140.6 mU/ng and 98.6 mU/ng and 114.8 mU/ng and 201.8 mU/ng and 129.9 mU/ng and 151.0 mU/ng and 138.8 mU/ng and 187.9 mU/ng and 124.6 mU/ng and 136.6 mU/ng.

What about the “Specific activity of CDK2” value ([2]; cell D tumor tissue) of the same compound?
The value was 0.0 mU/ng (4×) and 80.1 mU/ng and 23.6 mU/ng.

And the “Specific activity of CDK2” value ([2]; cell E tumor tissue)?
The value was 55.7 mU/ng and 50.2 mU/ng and 59.1 mU/ng and 0.0 mU/ng and 56.4 mU/ng.

What about the “Specifc activity of CDK1” value ([3]; cell A tumor tissue) of the same compound?
Its value is 11.79 mU/ng and 10.83 mU/ng and 17.50 mU/ng and 21.77 mU/ng and 16.12 mU/ng and 16.82 mU/ng and 13.55 mU/ng.

And the “Specifc activity of CDK1” value ([3]; cell B tumor tissue)?
Its value is 27.00 mU/ng and 31.56 mU/ng and 20.53 mU/ng and 13.39 mU/ng and 33.32 mU/ng and 32.01 mU/ng and 34.33 mU/ng and 34.21 mU/ng and 35.27 mU/ng and 25.40 mU/ng and 13.90 mU/ng.

What about the “Specifc activity of CDK1” value ([3]; cell C tumor tissue) of the same compound?
Its value is 25.48 mU/ng and 11.25 mU/ng and 22.64 mU/ng and 39.14 mU/ng and 21.35 mU/ng and 11.22 mU/ng and 13.77 mU/ng and 7.06 mU/ng and 16.60 mU/ng and 11.60 mU/ng and 15.29 mU/ng and 12.58 mU/ng and 41.80 mU/ng and 60.36 mU/ng and 36.09 mU/ng and 30.85 mU/ng.

What about the “Specifc activity of CDK1” value ([3]; cell D tumor tissue) of the same compound?
Its value is 10.75 mU/ng and 0.00 mU/ng and 7.10 mU/ng and 6.48 mU/ng and 22.16 mU/ng and 9.68 mU/ng and 10.04 mU/ng.

What about the “Specifc activity of CDK1” value ([3]; cell E tumor tissue) of the same compound?
The value was 9.81 mU/ng and 2.45 mU/ng and 8.76 mU/ng and 7.92 mU/ng and 8.29 mU/ng.

And the “Expression level of p21” value ([4]; cell A tumor tissue)?
Its value is 1.43 and 1.34 and 1.93 and 1.28 and 0.00 and 0.86 and 1.26.

What about the “Expression level of p21” value ([4]; cell B tumor tissue) of the same compound?
The value was 4.09 and 4.61 and 5.18 and 5.25 and 5.41 and 5.57 and 5.33 and 5.00 and 3.42 and 4.33 and 5.43.

What about the “Expression level of p21” value ([4]; cell C tumor tissue) of the same compound?
The value was 1.06 and 1.44 and 0.00 (7×) and 1.31 and 0.85 and 0.77 and 0.64 and 0.57 and 0.53 and 0.29.

And the “Expression level of p21” value ([4]; cell D tumor tissue)?
The value was 8.76 and 7.21 and 7.62 and 7.34 and 6.39 and 5.40 and 0.74.

What about the “Expression level of p21” value ([4]; cell E tumor tissue) of the same compound?
Its value is 34.45 and 10.96 and 15.33 and 17.25 and 15.25.

What about the “Therapy using anticancer agent” value [5] of the same compound?
The value was “Type II”.

And the “Therapy using anticancer agent” value [6]?
The value was “Type I”.

What about the “Therapy using anticancer agent” value [7] of the same compound?
The value was “Type III”.

And the “Therapy using anticancer agent” value [8]?
The value was “Type II”.

Source: patent US7682785B2, “Method for predicting effectiveness of chemotherapy using anticancer agent” (Sysmex Corporation, priority 2005, dated 2010)
